Experimental data: US12410124B2 (priority 2019, dated 2025)
Like-named read-outs stand apart in the source and are kept apart here.

Legend:
substantia nigra CD11b = test: Number of substantia nigra microglial cells with CD11b positive expression in MPTP Parkinson's disease model mouse (immunohistochemistry); type: in vivo; conditions: substantia nigra, MPTP Parkinson's disease model mouse, immunohistochemistry
hippocampus CD11b = test: Number of hippocampus microglial cells with CD11b positive expression in MPTP Parkinson's disease model mouse (immunohistochemistry); type: in vivo; conditions: hippocampus, MPTP Parkinson's disease model mouse, immunohistochemistry
[1] = biological target: acetylcholinesterase (AchE) (Homo sapiens, UniProt P22303); test: biochemical
[2] = test system: fetal rat midbrain neurons; test: Survival rate of primary midbrain neurons induced by MPP+ (CCK-8); type: cell-based; conditions: for viability at 5 µM / viability at 10 µM / viability at 20 µM: Rattus norvegicus, Neuron, read-out: Survival rate (%)
primary glial cells = test: Inhibition of the NO release of primary glial cells induced by LPS; type: cell-based, rat
[3] = acetylcholinesterase, modified Ellman method, read-out: IC50
[4] = 5 μM, 3 h pre-incubation, 48 h with MPP+
[5] = 10 μM, 3 h pre-incubation, 48 h with MPP+
[6] = 20 μM, 3 h pre-incubation, 48 h with MPP+
[7] = Rattus norvegicus, Glial cell, 5 μM, read-out: NO inhibition (%)
[8] = Rattus norvegicus, Glial cell, 10 μM, read-out: NO inhibition (%)
[9] = Rattus norvegicus, Glial cell, read-out: NO inhibition (%)

Chain of acetylcholinesterase (AchE) (P22303 32-614, species assumed): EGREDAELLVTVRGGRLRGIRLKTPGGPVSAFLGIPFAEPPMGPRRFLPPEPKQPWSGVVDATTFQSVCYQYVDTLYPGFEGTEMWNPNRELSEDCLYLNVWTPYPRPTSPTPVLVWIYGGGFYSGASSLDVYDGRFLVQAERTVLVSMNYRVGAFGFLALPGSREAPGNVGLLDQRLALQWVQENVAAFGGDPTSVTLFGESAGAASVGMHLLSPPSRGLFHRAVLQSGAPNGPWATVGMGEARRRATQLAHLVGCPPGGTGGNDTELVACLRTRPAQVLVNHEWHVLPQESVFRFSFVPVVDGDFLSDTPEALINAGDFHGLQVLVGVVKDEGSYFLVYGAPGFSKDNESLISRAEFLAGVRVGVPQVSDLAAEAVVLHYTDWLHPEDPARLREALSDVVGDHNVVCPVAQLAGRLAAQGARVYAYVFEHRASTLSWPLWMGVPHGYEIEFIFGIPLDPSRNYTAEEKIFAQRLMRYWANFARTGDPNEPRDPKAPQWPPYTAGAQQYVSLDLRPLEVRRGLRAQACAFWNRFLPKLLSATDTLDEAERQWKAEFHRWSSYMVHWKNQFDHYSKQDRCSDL

Compound | Positive cell number (microglial cells with CD11b positive expression) (substantia nigra CD11b) | Positive cell number (microglial cells with CD11b positive expression) (hippocampus CD11b) | IC50 [1, 3] [µM] | viability at 5 µM [2, 4] [%] | viability at 10 µM [2, 5] [%] | viability at 20 µM [2, 6] [%] | inhibition at 5 µM (primary glial cells; [7]) [%] | inhibition at 10 µM (primary glial cells; [8]) [%] | also measured
CC[Si](CC)(Oc1ccc(C(Cl)S(=O)(=O)/C=C/c2ccc(OC(=O)N3CC(C)OC(C)C3)c(OC(=O)c3cccc(Cl)c3OC)c2)cc1)c1ccccc1 (stereo not shown) [Compound R1-5, (E)-4-{2-[4-(diethylphenylsiloxy)phenylchloromesyl]ethenyl}-2-(3-chloro-2-methoxybenzoyloxy)phenyl-2,6-dimethylmorpholine-4-carboxylate] | 39 ± 6 | 17 ± 2 | 27.5 ± 3.49 | 72.3 ± 2.94 | 82.5 ± 2.83 | 90.2 ± 1.76 | 23.8 ± 4.32 | 48.5 ± 3.68 | inhibition at 20 µM (primary glial cells; Rattus norvegicus, Glial cell, 20 μM, read-out: NO inhibition (%)): 73.6 ± 3.92%
Cc1ccc(S(=O)(=O)Oc2ccc(CS(=O)(=O)/C=C/c3ccc(OS(=O)(=O)c4ccc(C)cc4)c(OC(=O)N(C)S(=O)(=O)c4ccc(C)cc4)c3)cc2)cc1 [Compound S6-6, (E)-2-(N-methyl-N-p-tosylcarbamoyloxy)-4-{2-[(4-p-tosyloxyphenyl)mesyl]ethenyl}phenyl p-toluenesulfonate] | 19 ± 2 | 9 ± 2 |  |  |  |  |  |  | IC50 [1]: 15.6 ± 3.07 µM; viability at 5 µM ([2]; 48 h): 72 ± 2.47%; viability at 10 µM ([2]; 48 h): 83.2 ± 4.07%; viability at 20 µM ([2]; 48 h): 91.7 ± 3.18%; inhibition at 5 µM (primary glial cells; [9]): 30.2 ± 2.97%; inhibition at 10 µM (primary glial cells; [9]): 59.2 ± 3.49%; inhibition at 20 µM (primary glial cells; [9]): 85.1 ± 4.41%
O=C(/C=C/c1ccc(O)c(O)c1)OCCc1ccccc1 [Positive control group, caffeic acid phenethyl ester, reference compound] | 49 ± 7 | 24 ± 2 | > 100 | 55 ± 3.78 | 67.1 ± 2.98 | 82.6 ± 2.13 | 45.2 ± 3.85 | 77.1 ± 4.37 | IC50 ([1]; read-out: IC50 values (acetylcholinesterase)): > 100 µM; inhibition at 2 µM (primary glial cells; Rattus norvegicus, Glial cell, 2 μM, read-out: NO inhibition (%)): 31.5 ± 5.43%
(E)-2-[(methylamino)methoxy]-4-{2-[1-(4′-nitro-[1,1′-biphenyl]-4-yl)ethylsulfonyl]ethenyl}phenylcarbamate [Compound M1-3] | 33 ± 5 | 12 ± 2 | 17.6 ± 2.19 |  |  |  |  |  | Survival rate (%) [2, 4]: 76.51 ± 4.82%; Survival rate (%) [2, 5]: 85.29 ± 2.97%; Survival rate (%) [2, 6]: 93.26 ± 2.26%; NO inhibition (%) (primary glial cells; 2 μM): 23.93 ± 4.67%; NO inhibition (%) (primary glial cells; 5 μM): 47.42 ± 4.43%; NO inhibition (%) (primary glial cells; 10 μM): 73.41 ± 4.83%
